Read-outs that look alike come from different tables or passages of the source. Numbered stars: 1 amine (or outer) side, 2 acyl side, 3 side chain; on linkers, the order of the positions; unused ones are H or OH. Square brackets hold non-standard residues; d marks the D form. Peptide text beside a SMILES is read from it. * marks the point of attachment. X3 = O=C(c1c(OCCN[*:1])c(-c2ccccc2)nc2ccccc12)[*:2]; X1 = O=C1[C@@H](N[*:1])Cc2ccccc2CN1CCC(=O)[*:2]; NH(1S-phenylpropyl) = CC[C@H](N*)c1ccccc1; Dmt = Cc1cc(O)cc(C)c1C[C@H](N)C(=O)O; 4Amb = NCc1ccc(C(=O)O)cc1; Ac5c = NC1(C(=O)O)CCCC1; X2 = C(CN*)CN1CCOCC1
Experiments:
[1] = target: T1, human recombinant MOR (Homo sapiens, UniProt P35372); experiment: Opioid receptor radioligand binding assay, MOR
T1 construct: expressed in transfected cells; host or cells: CHO cells (gift from Prof. Girolamo Calo', Ferrara University)
T1 sequence (P35372 whole entry): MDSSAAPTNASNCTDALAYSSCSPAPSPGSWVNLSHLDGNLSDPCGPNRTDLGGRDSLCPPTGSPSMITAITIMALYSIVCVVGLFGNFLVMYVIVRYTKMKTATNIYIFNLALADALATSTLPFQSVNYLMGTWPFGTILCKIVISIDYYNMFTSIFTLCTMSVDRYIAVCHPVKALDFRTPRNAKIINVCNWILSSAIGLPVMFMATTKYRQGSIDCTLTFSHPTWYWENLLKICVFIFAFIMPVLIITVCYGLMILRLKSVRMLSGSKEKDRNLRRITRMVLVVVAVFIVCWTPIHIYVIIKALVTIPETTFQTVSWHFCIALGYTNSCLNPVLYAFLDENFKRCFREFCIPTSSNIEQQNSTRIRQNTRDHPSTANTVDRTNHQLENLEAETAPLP

[2] = target: T2, human recombinant DOR (Homo sapiens, UniProt P41143); experiment: Opioid receptor radioligand binding assay, DOR
T2 construct: expressed in transfected cells; host or cells: CHO cells (gift from Prof. Girolamo Calo', Ferrara University)
T2 sequence (P41143 whole entry): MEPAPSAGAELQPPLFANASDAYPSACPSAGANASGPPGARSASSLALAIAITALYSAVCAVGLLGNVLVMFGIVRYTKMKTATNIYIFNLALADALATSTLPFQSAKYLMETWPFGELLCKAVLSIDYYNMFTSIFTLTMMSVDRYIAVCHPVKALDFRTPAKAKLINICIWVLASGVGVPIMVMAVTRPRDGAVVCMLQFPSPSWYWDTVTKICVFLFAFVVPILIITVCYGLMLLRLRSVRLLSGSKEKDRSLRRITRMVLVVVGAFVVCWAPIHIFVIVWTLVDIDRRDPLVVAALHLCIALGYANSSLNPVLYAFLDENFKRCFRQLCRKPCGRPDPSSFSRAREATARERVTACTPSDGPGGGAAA

[3] = target: T3, human recombinant KOR (Homo sapiens, UniProt P41145); experiment: Opioid receptor radioligand binding assay, KOR
T3 construct: expressed in transfected cells; host or cells: CHO cells (gift from Prof. Girolamo Calo', Ferrara University)
T3 sequence (P41145 whole entry): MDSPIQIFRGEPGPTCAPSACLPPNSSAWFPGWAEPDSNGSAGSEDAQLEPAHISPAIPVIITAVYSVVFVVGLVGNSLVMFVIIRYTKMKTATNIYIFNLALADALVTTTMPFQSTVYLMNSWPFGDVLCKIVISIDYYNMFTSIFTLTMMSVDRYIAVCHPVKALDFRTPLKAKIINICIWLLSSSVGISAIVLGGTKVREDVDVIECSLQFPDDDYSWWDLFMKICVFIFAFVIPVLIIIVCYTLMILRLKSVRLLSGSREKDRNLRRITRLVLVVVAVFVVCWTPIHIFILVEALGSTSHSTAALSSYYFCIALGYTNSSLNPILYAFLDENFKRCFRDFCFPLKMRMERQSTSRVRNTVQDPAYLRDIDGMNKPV

[4] = target: T1, human recombinant MOR; experiment: Calcium mobilization assay, CHO MOR cells with Gαqi5; assay type: cell-based; conditions: for EC50 / reduction in potency at MOR compared to dermorphin / reduction in potency at MOR compared to opioid parent pharmacophore KGOP01: calcium mobilization; for EC50: CHO MOR Gαqi5, maximum tested concentration 10 µM, read-out: MOR EC50 ± SEM; for MOR α ± SEM: intrinsic activity: Emax of ligand / Emax of dermorphin
[5] = target: T2, human recombinant DOR; experiment: Calcium mobilization assay, CHO DOR cells with GαqG66Di5; assay type: cell-based; conditions: for DOR EC50 ± SEM (nM) / decreased potency at DOR compared to reference DPDPE / EC50: calcium mobilization; for DOR EC50 ± SEM (nM) / EC50: CHO DOR GαqG66Di5, maximum tested concentration 10 µM; for DOR α ± SEM: intrinsic activity: Emax of ligand / Emax of DPDPE; for EC50: read-out: DOR EC50 ± SEM
[6] = target: T3, human recombinant KOR; experiment: Calcium mobilization assay, CHO KOR cells with Gαqi5; assay type: cell-based; conditions: for KOR α ± SEM: intrinsic activity: Emax of ligand / Emax of dynorphin A
[7] = target: T4, NK3 (h) (Homo sapiens, UniProt P29371); experiment: NK3 radioligand binding assay (Eurofins)
T4 construct: host or cells: CHO cells
T4 sequence (P29371 1-465): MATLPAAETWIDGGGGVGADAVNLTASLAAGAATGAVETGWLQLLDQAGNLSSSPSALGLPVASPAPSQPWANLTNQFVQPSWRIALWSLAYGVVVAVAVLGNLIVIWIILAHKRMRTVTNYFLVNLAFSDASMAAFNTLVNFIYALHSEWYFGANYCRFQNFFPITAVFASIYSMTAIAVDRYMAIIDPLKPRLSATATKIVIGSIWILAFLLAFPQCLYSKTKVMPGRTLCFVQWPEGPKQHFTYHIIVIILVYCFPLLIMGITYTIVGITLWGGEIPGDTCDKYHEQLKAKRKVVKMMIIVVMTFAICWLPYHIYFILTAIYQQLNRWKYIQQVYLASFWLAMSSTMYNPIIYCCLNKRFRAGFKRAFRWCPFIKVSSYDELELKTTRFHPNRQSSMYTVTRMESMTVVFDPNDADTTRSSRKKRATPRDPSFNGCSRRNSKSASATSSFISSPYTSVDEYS

[8] = target: T5, NK2 (h) (Homo sapiens, UniProt P21452); experiment: NK2 radioligand binding assay (Eurofins)
T5 construct: host or cells: CHO cells
T5 sequence (P21452 1-398): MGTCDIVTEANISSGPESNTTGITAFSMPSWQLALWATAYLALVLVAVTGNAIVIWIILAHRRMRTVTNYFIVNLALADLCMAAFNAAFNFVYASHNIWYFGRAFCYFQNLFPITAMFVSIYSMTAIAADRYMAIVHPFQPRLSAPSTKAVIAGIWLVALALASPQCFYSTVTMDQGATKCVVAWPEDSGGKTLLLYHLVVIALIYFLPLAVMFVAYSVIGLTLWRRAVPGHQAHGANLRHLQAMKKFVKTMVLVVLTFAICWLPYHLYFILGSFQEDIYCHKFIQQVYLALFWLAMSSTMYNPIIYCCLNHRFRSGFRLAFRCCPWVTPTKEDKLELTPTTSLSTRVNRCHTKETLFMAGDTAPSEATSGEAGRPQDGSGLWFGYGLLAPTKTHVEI

[9] = [3H]DAMGO displacement, CHO cell membranes, human recombinant receptor
[10] = [3H][Ile5,6]deltorphin-2 displacement, CHO cell membranes, human recombinant receptor
[11] = calcium mobilization, CHO KOR Gαqi5, maximum tested concentration 10 µM, crc = concentration-response curve
[12] = [125I]NKA 0.1 nM, human recombinant (CHO cells), 60 min RT, n.c. = less than 25% inhibitory binding at highest validated test concentrations, read-out: IC50 [nM] ± SEM, NK2 receptor
[13] = [125I]NKA 0.1 nM, human recombinant (CHO cells), Cheng Prusoff, n.c. = not calculated, read-out: Ki [nM] ± SEM, NK2 receptor

Row | SMILES | Ki [1] | Ki [2] | Ki [nM] ± SEM DOR [2, 10] | Ki [3] | EC50 [4] | MOR α ± SEM [4] | DOR EC50 ± SEM (nM) [5] | DOR α ± SEM [5] | KOR EC50 ± SEM (nM) [6, 11] | KOR α ± SEM [6] | decreased potency at DOR compared to reference DPDPE [5] | EC50 [5] | also measured
1 | Cc1cc(O)cc(C)c1C[C@H](N)C(=O)N[C@H](CCCNC(=N)N)C(=O)N[C@@H](Cc1ccccc1)C(=O)N[C@@H](CCCCN)C(=O)NCc1ccc(C(=O)NC2(C(=O)N[C@H](Cc3ccccc3)C(=O)NCCCN3CCOCC3)CCCC2)cc1 [SBL-OPNK-6] (H-[Dmt][dR]FK[4Amb][Ac5c][dF]-X2) | 74.93 ± 0.15 nM | 22400 nM | did not bind efficiently | 100 ± 1.16 nM | 988 ± 82 nM | 0.67 ± 0.05 | inactive | inactive | crc incomplete | crc incomplete |  |  | Ki [nM] ± SEM MOR [1, 9]: Weak binding
2 | CC[C@H](NC(=O)c1c(OCCNC(C)=O)c(-c2ccccc2)nc2ccccc12)c1ccccc1 [SBL-OPNK-3] |  |  |  |  |  |  |  |  |  |  |  |  | IC50 ([7]; [3H]SR 142801 0.4 nM, human recombinant (CHO cells), 120 min RT, read-out: IC50 [nM] ± SEM, NK3 receptor): 20.3 ± 7.2 nM; Ki ([7]; [3H]SR 142801 0.4 nM, human recombinant (CHO cells), Cheng Prusoff, read-out: Ki [nM] ± SEM, NK3 receptor): 11 ± 7.8 nM
3 | CC(=O)N[C@@H](CC(=O)O)C(=O)N[C@@H](Cc1ccc(O)cc1)C(=O)N[C@H](Cc1c[nH]c2ccccc12)C(=O)N[C@H](C(=O)N[C@H](Cc1c[nH]c2ccccc12)C(=O)N[C@H](Cc1c[nH]c2ccccc12)C(=O)N[C@@H](CCCCN)C(N)=O)C(C)C [SBL-OPNK-1] (Ac-DY[dW]V[dW][dW]K-NH2) |  |  |  |  |  |  |  |  |  |  |  |  | IC50 [8, 12]: 33.6 ± 11.9 nM; Ki [8, 13]: 18.3 ± 13 nM; lower NK2 binding affinity compared to the reference compound ([8]; reference [Nle10]-NKA(4-10)): about 17 fold
4 | Cc1cc(O)cc(C)c1C[C@H](N)C(=O)N[C@H](CCCNC(=N)N)C(=O)N[C@@H](Cc1ccccc1)C(=O)N[C@@H](CCCCN)C(=O)N[C@@H](CC(=O)O)C(=O)N[C@@H](Cc1ccc(O)cc1)C(=O)N[C@H](Cc1c[nH]c2ccccc12)C(=O)N[C@H](C(=O)N[C@H](Cc1c[nH]c2ccccc12)C(=O)N[C@H](Cc1c[nH]c2ccccc12)C(=O)N[C@@H](CCCCN)C(N)=O)C(C)C [SBL-OPNK-4] (H-[Dmt][dR]FKDY[dW]V[dW][dW]K-NH2) | 1.02 ± 0.03 nM | 1250 nM | did not bind efficiently | 90.5 ± 5.69 nM | 815 ± 145 nM | 0.74 ± 0.05 | inactive | inactive | crc incomplete | crc incomplete |  |  | 
5 | Cc1cc(O)cc(C)c1C[C@H](N)C(=O)N[C@H](CCCNC(=N)N)C(=O)N[C@H]1Cc2ccccc2CN(CCC(=O)N[C@@H](CC(=O)O)C(=O)N[C@@H](Cc2ccc(O)cc2)C(=O)N[C@H](Cc2c[nH]c3ccccc23)C(=O)N[C@H](C(=O)N[C@H](Cc2c[nH]c3ccccc23)C(=O)N[C@H](Cc2c[nH]c3ccccc23)C(=O)N[C@@H](CCCCN)C(N)=O)C(C)C)C1=O [SBL-OPNK-5] (H-[Dmt][dR][X1]DY[dW]V[dW][dW]K-NH2) | 2.11 ± 0.04 nM | 10 ± 3.2 nM |  | 90.7 ± 0.94 nM | 10.2 ± 0.67 nM | 0.91 ± 0.04 |  | 1.01 ± 0.03 |  | 0.44 ± 0.06 | 2–3 fold | 118 ± 26 nM | reduction in potency at MOR compared to dermorphin [4]: 2 fold; reduction in potency at MOR compared to opioid parent pharmacophore KGOP01 [4]: 18 fold; EC50 ([6]; calcium mobilization, CHO KOR Gαqi5, maximum tested concentration 10 µM, crc = concentration-response curve, read-out: KOR EC50 ± SEM): 415 ± 133 nM; IC50 [8]: 3 ± 1 nM; Ki [8]: 1.6 ± 1.1 nM
6 | CC1(C)SSC(C)(C)[C@@H](NC(=O)[C@@H](N)Cc2ccc(O)cc2)C(=O)NCC(=O)N[C@@H](Cc2ccccc2)C(=O)N[C@H]1C(=O)O [DPDPE, reference compound] |  |  |  |  |  |  |  |  | inactive | inactive |  |  | 
7 | CC[C@H](NC(=O)c1c(OCCNC(=O)[C@H](CCCCN)NC(=O)[C@H](Cc2ccccc2)NC(=O)[C@@H](CCCNC(=N)N)NC(=O)[C@@H](N)Cc2c(C)cc(O)cc2C)c(-c2ccccc2)nc2ccccc12)c1ccccc1 [SBL-OPNK-8] (H-[Dmt][dR]FK[X3]-{NH(1S-phenylpropyl)}) | 120 ± 5.25 nM | 4570 nM | did not bind efficiently | 104 ± 6.12 nM | 916 ± 106 nM | 0.65 ± 0.02 | inactive | inactive | crc incomplete | crc incomplete |  |  | Ki [nM] ± SEM MOR [1, 9]: Weak binding
8 | CC[C@H](NC(=O)c1c(OCCNC(=O)CCN2Cc3ccccc3C[C@H](NC(=O)[C@@H](CCCNC(=N)N)NC(=O)[C@@H](N)Cc3c(C)cc(O)cc3C)C2=O)c(-c2ccccc2)nc2ccccc12)c1ccccc1 [SBL-OPNK-9] | 5.43 ± 0.08 nM | 6.57 ± 4.02 nM |  | 97.1 ± 4.72 nM | 31.3 ± 7.39 nM | 0.83 ± 0.05 |  | 1.02 ± 0.03 | crc incomplete | crc incomplete | 2–3 fold | 84.1 ± 18 nM | IC50 [7]: 6.7 ± 2.4 nM; Ki [7]: 3.6 ± 2.5 nM; increase of NK3 affinity and potency compared to reference SB 222200 [7]: 1.5 fold
9 | Cc1cc(O)cc(C)c1C[C@H](N)C(=O)N[C@H](CCCNC(=N)N)C(=O)N[C@H]1Cc2ccccc2CN(CCC(=O)NCc2ccc(C(=O)NC3(C(=O)N[C@H](Cc4ccccc4)C(=O)NCCCN4CCOCC4)CCCC3)cc2)C1=O [SBL-OPNK-7] (H-[Dmt][dR][X1][4Amb][Ac5c][dF]-X2) |  |  |  |  | 13.1 ± 1.84 nM | 0.89 ± 0.04 |  | 1.02 ± 0.02 | completely inactive | inactive | 2–3 fold | 66.5 ± 11.7 nM | Ki ([1]; [3H]DAMGO displacement, CHO cell membranes, human recombinant receptor, read-out: Ki [nM] ± SEM MOR): 2.83 ± 0.02 nM; Ki ([2]; [3H][Ile5,6]deltorphin-2 displacement, CHO cell membranes, human recombinant receptor, read-out: Ki [nM] ± SEM DOR): 3.26 ± 0.09 nM; Ki ([3]; [3H]nor-BNI displacement, CHO cell membranes, human recombinant receptor, read-out: Ki [nM] ± SEM KOR): 53 ± 3.2 nM; reduction in potency at MOR compared to dermorphin [4]: 3 fold; reduction in potency at MOR compared to opioid parent pharmacophore KGOP01 [4]: 24 fold; IC50 [8, 12]: 0.63 ± 0.22 nM; Ki [8, 13]: 0.34 ± 0.24 nM
10 | Cc1cc(O)cc(C)c1C[C@H](N)C(=O)N[C@H](CCCNC(=N)N)C(=O)N[C@H]1Cc2ccccc2CN(CCC(N)=O)C1=O [KGOP01, H-Dmt-D-Arg-Aba-βAla-NH2, reference compound] |  | 4.88 ± 0.11 nM |  | 72.7 ± 4.32 nM | 0.54 ± 0.06 nM |  |  |  | crc incomplete |  |  | 75.6 ± 13.1 nM | 

Reference: paper PMC8434392, “Harnessing the Anti-Nociceptive Potential of NK2 and NK3 Ligands in the Design of New Multifunctional μ/δ-Opioid Agonist–Neurokinin Antagonist Peptidomimetics” (Molecules, 2021)
